Data: patent US5554630A, “Benzimidazole compounds” (NeuroSearch A/S, priority 1993, dated 1996)
Like-named read-outs stand apart in the source and are kept apart here.

Tests used:
[1] = molecular target: benzodiazepine receptor (GABAA receptor); test: in vitro inhibition of 3H-flunitrazepam binding (rat cerebral cortex membranes); design: species or system rat (male Wistar
Source text: At present two types of GABA receptors are known, the GABAA and the GABAB receptors. […] Activation of GABA receptors leads to alternations in membrane potential (hyperpolarization). The GABAA receptors are associated with chloride influx through its associated and integrated chloride channel, whereas GABAB receptor activation indirectly alters potassium and calcium channels as well as modifies second messenger production. The GABAA recognition sites can be activated by GABA, muscimol; and isoguvacine for example, but not by GABAB agonists such as for example baclofen. The modulatory GABAA recognition site at the benzodiazepine receptor sites can be selectively radiolabelled with 3H-flunitrazepam. The affinity of various potential ligands for the benzodiazepine receptor sites can thus be evaluated by estimating the ability of test compounds to displace 3H-flunitrazepam.
Tissue preparations are performed at zero to four degrees Celsius. Cerebral cortex from male Wistar rats (150-200 g) is homogenized in 2 times 10 ml Tris-HCl, 30 mM at pH 7.4 The resulting suspension is centrifuged at 40,000 g for 15 minutes. The pellet is washed three times with buffer, centrifuged at two degrees Celsius at 40,000 g for ten minutes. The washed pellet is homogenized in 2 times 10 ml of buffer and is thereafter incubated on a water bath at 37° C. for 30 minutes and is thereafter centrifuged at 40,000 g for 10 minutes. The pellet is then homogenized with buffer and is centrifuged at 0° C. for 10 minutes at 40,000 g. The final pellet is resuspended in 30 ml buffer and the preparation may thereafter be stored at -20° C. In the test situation the membrane preparation is thawed and centrifuged at 2° C. for ten minutes at 48,000 g. The pellet is then washed two times with 2 times 10 ml 50 mM Tris-citrate at pH 7.1 using an Ultra-Turrax homogenizer and centrifuged at 48,000 g for 10 minutes. The hereby obtained pellet is resuspended in 50 mM Tris-citrate at pH 7.1,500 ml buffer per gram of original tissue, and is then used for binding assays. Aliquots of 0.5 ml tissue is added to 0.025 ml of 3H-flunitrazepam, final concentration of 1 nM, and is mixed and incubated for 40 minutes at 2° C. Non-specificbinding is determined using clonazepam, at 100 ng/ml final concentration. After incubation 5 ml of icecold buffer is added to the samples and these are poured directly onto Whatman GF/C glass fibre filters under suction and is immediately washed with 5 ml icecold buffer. The amount of radioactivity on the filters is determined by conventional liquid scintillation counting. Specific binding is total binding minus non specific binding. Test value is calculated as the IC50 which is equivalent to the concentration which inhibits the specific binding by 50 percent.
The method used to determine in vitro inhibition of ^3 H-flunitrazepam binding is presented under the heading of Biology.

[2] = system: GABAA receptor-ion channel complex (benzodiazepine receptor, mouse forebrain); test: in vivo inhibition of 3H-flunitrazepam binding in mouse forebrain; design: species or system mouse (female NMRI); conditions: i.p. 10 min before i.v. 3H-FNM, mice killed 20 min later, 30 min
[3] = system: GABAA receptor-ion channel complex; conditions: background statement, in vitro; cited from earlier work
[4] = first table, 1 nM 3H-flunitrazepam, 40 min at 2° C, read-out: IC50
[5] = second table (R6/R11), 3H-flunitrazepam, read-out: in-vitro binding IC50

CN1C(=O)c2ccccc2-n2cnc3cc(C(F)(F)F)cc1c32 [Compound 2f, 4-trifluoromethyl-6,7-dihydro-6-methyl-7-oxo-benzimidazo[3,4-ab][1,4]benzodiazepine]
IC50 [1, 4]: 5.4 nM

FC(F)(F)c1ccc2c(c1)ncn2-c1cccc(-n2ccnc2)c1 [Compound 3a, 1-(3-(1-Imidazolyl)-phenyl)-5 trifluoromethylbenzimidazole]
in-vivo binding ED50 [2]: 7.3 mg/kg | IC50 [1, 5]: 16 nM

CC(C)OC(=O)c1ccc2c(c1)ncn2-c1cccc(-n2ccnc2)c1 [Compound 4a]
in-vivo binding ED50 [2]: > 10.0 mg/kg | IC50 [1, 5]: 11 nM

Cc1ccc2c(c1)ncn2-c1cccc(-n2ccnc2)c1 [Compound 5a, 1-[3-(1-imidazolyl)-phenyl]-5-methyl-benzimidazole]
in-vivo binding ED50 [2]: 0.8 mg/kg | IC50 [1, 4]: 1.2 nM | IC50 [1, 5]: 1.2 nM

CC(C)(C)c1ccc2c(c1)ncn2-c1cccc(-n2ccnc2)c1 [Compound 6a, 1-[3-(1-imidazolyl)-phenyl]-5-t-butyl-benzimidazole]
in-vivo binding ED50 [2]: 2.1 mg/kg | IC50 [1, 4]: 2.4 nM | IC50 [1, 5]: 2.4 nM

Cc1cn(-c2cccc(-n3cnc4cc(C(C)(C)C)ccc43)c2)cn1 [Compound 8a]
IC50 [1, 5]: 11 nM

c1ccc(-c2ccc3c(c2)ncn3-c2cccc(-n3ccnc3)c2)cc1 [Compound 9a, 1-[3-(1-imidazolyl)-phenyl]-5-phenyl-benzimidazole]
in-vivo binding ED50 [2]: 8.9 mg/kg | IC50 [1, 4]: 7.4 nM | IC50 [1, 5]: 7.2 nM

CC(C)c1ccc2c(c1)ncn2-c1cccc(-n2ccnc2)c1 [Compound 14a, 1-[3-(1-imidazolyl)-phenyl]-5-i-propyl-benzimidazole]
in-vivo binding ED50 [2]: 1.2 mg/kg | IC50 [1, 4]: 0.6 nM | IC50 [1, 5]: 0.6 nM

Ic1ccc2c(c1)ncn2-c1cccc(-c2cccnc2)c1 [Compound 18a, 1-[3-(3-pyridyl)-phenyl]-5-iodo-benzimidazole]
in-vivo binding ED50 [2]: 1.5 mg/kg | IC50 [1, 4]: 1.7 nM | IC50 [1, 5]: 1.7 nM

CC(C)(C)c1ccc2c(c1)ncn2-c1cccc(-c2cccnc2)c1 [Compound 22a, 1-[3-(3-pyridyl)-phenyl]-5-t-butyl-benzimidazole]
in-vivo binding ED50 [2]: 16.3 mg/kg | IC50 [1, 5]: 10 nM

O=[N+]([O-])c1ccc2c(c1)ncn2-c1cccc(-c2cccnc2)c1 [Compound 24a]
in-vivo binding ED50 [2]: 6.1 mg/kg | IC50 [1, 5]: 40 nM

Cc1noc(-c2cccc(-n3cnc4cc(C(C)(C)C)ccc43)c2)n1 [Compound 33a]
in-vivo binding ED50 [2]: 8.2 mg/kg | IC50 [1, 5]: 13 nM

CC(C)c1ccc2c(c1)ncn2-c1cccc(-n2cnc3ccccc32)c1 [Compound 34a, 1-[3-(1-benzimidazolyl)-phenyl]-5-i-propyl-benzimidazole]
in-vivo binding ED50 [2]: 2.8 mg/kg | IC50 [1, 4]: 4.3 nM | IC50 [1, 5]: 4.3 nM

Cc1nccn1-c1cccc(-n2cnc3cc(-c4ccccc4)ccc32)c1 [Compound 38a, 1-[3-(1-(2-methylimidazolyl))-phenyl]-5-phenyl-benzimidazole]
in-vivo binding ED50 [2]: 2.6 mg/kg | IC50 [1, 4]: 9 nM | IC50 [1, 5]: 9 nM

FC(F)(F)c1ccc2c(c1)ncn2-c1cccc(-n2cnc3ccccc32)c1 [Compound 39a, 1-[3-(1-benzimidazolyl)-phenyl]-5-trifluoromethyl-benzimidazole]
in-vivo binding ED50 [2]: 7.5 mg/kg | IC50 [1, 4]: 9.2 nM | IC50 [1, 5]: 9.2 nM

O=CNc1ccc2c(c1)ncn2-c1cccc(-n2ccnc2)c1 [Compound 41a]
in-vivo binding ED50 [2]: > 10.0 mg/kg | IC50 [1, 5]: 13 nM

c1cncc(-c2cccc(-n3cnc4cc(-c5ccoc5)ccc43)c2)c1 [Compound 45a, 1-[3-(3-pyridyl)-phenyl]-5-(3-furanyl)-benzimidazole]
in-vivo binding ED50 [2]: 1.9 mg/kg | IC50 [1, 4]: 1.2 nM | IC50 [1, 5]: 1.4 nM

O=Cc1ccc2c(c1)ncn2-c1cccc(-c2cccnc2)c1 [Compound 50a, 1-(3-(3-pyridyl)phenyl)-5-formylbenzimidazole]
in-vivo binding ED50 [2]: > 3 mg/kg | IC50 [1, 5]: 37 nM

ON=Cc1ccc2c(c1)ncn2-c1cccc(-c2cccnc2)c1 [Compound 52a, 1-(3-(3-pyridyl)phenyl)-5-aldoximobenzimidazole]
in-vivo binding ED50 [2]: 1.6 mg/kg | IC50 [1, 5]: 3.3 nM

c1cncc(-c2cccc(-n3cnc4cc(-c5nc(C6CC6)no5)ccc43)c2)c1 [Compound 53a]
in-vivo binding ED50 [2]: 24.0 mg/kg | IC50 [1, 5]: 28 nM

NC(=O)NN=Cc1ccc2c(c1)ncn2-c1cccc(-c2cccnc2)c1 [Compound 55a, 1-(3-(3-pyridyl)phenyl)-5-semicarbazonobenzimidazole]
in-vivo binding ED50 [2]: > 3.0 mg/kg | IC50 [1, 5]: 7.6 nM

c1cncc(-c2cccc(-n3cnc4cc(-n5ccnc5)ccc43)c2)c1 [Compound 56a]
in-vivo binding ED50 [2]: 6.8 mg/kg | IC50 [1, 5]: 22 nM

c1cncc(-c2cccc(-n3cnc4cc(-c5ccco5)ccc43)c2)c1 [Compound 57a, 1-[3-(3-pyridyl)-phenyl]-5-(2-furanyl)-benzimidazole]
in-vivo binding ED50 [2]: 4.8 mg/kg | IC50 [1, 5]: 4.3 nM

COCc1ccc2c(c1)ncn2-c1cccc(-c2cccnc2)c1 [Compound 58a]
in-vivo binding ED50 [2]: 1.7 mg/kg | IC50 [1, 5]: 15 nM

CON=Cc1ccc2c(c1)ncn2-c1cccc(-c2cccnc2)c1 [Compound 59a, 1-[3-(3-pyridyl)-phenyl]-5-methylaldoximo-benzimidazole]
in-vivo binding ED50 [2]: 1.04 mg/kg | IC50 [1, 5]: 2 nM

CC(C)c1ccc2c(c1)ncn2-c1cccc(-c2cccnc2)c1 [Compound 60a, 1-[3-(3-pyridyl)-phenyl]-5-i-propyl-benzimidazole]
in-vivo binding ED50 [2]: 2.2 mg/kg | IC50 [1, 5]: 4.2 nM

CN1C(=O)CN=C(c2ccccc2F)c2cc([N+](=O)[O-])ccc21 [^3 H-FNM]
binding to the GABAA receptor-ion channel complex (in words) [3]: selectively and with high-affinity
